This is an account of results in patent US11633416B1, “Oral formulations of CD73 compounds” (ARCUS BIOSCIENCES, INC., priority 2020, dated 2023).

Like-named read-outs stand apart in the source and are kept apart here.

Broadly, the AUC(0-inf) is the area under the concentration-time curve extrapolated to infinity. Higher therefore signals high exposure. The Cmax is the peak of the concentration-time curve.

The nature of this series: Oral exposure in cynomolgus monkeys, compound alone or with excipient in capsules; plasma by LC-MS/MS. It is filed as in vivo. Conditions: for Oral bioavailability using calcium chelating excipients: cynomolgus monkeys, capsules, versus compound alone. The text has this:
The influence of different excipients on the bioavailability of Compound (Ia), Compound 2 and Compound 3 in cynomolgus monkeys was investigated. The excipients tested were sodium phytate, sodium citrate, sodium EDTA, cyclodextrin, sodium taurocholate, sodium polystyrene sulfate, sodium caprate, sodium phosphate, carbomer 971P and palmitoyl carnitine chloride. Generally, an appropriate quantity (as indicated in Table 1) of Compound (Ia), Compound 2 or Compound 3 and an excipient were mixed to homogeneity and transferred to capsules for dosing. In one example, Compound (Ia) (500 mg assay, 1.063 correction factor applied for to account for purity) and 2.75 g of sodium phytate (Sigma) were combined in a mortar and pestle. The mixture was ground to homogeneity then 530 mg of the white powder was transferred to enteric capsules (Size 0) prior to dosing.
[…] Compound (Ia), Compound 2 or Compound 3, either alone, or with excipient, in an enteric capsule was administered via an oral pet piller. Blood samples were collected from a peripheral vessel at designated time points, and centrifuged to obtain plasma.
Plasma samples obtained at each time point from the subjects were prepared by protein precipitation. An aliquot of 50 μL sample was added with 150 μL acetonitrile containing an internal standard ([[[(2R,3S,4R,5R)-5-[6-chloro-4-[[(1S)-2,2,2-trideuterio-1-(2-fluorophenyl)ethyl]amino]pyrazolo[3,4-b]pyridin-1-yl]-3,4-dihydroxyoxolan-2-yl]-dideuteriomethoxy]-hydroxyphosphoryl]methylphosphonic acid, 200 ng/mL in Acetonitrile). The mixture was vortexed for 15 min and then centrifuged at 4500 rpm for 15 min at 4° C. (Sorvall Legend XTR centrifuge, Thermo Scientific, Langenselbold, Germany). 80 μL of the resulting supernatant was transferred into a new plate and mixed with 160 μL water followed by LC-MS/MS analysis.
• API 4000 mass spectrometer (Applied Biosystems, Foster City, Calif.) • Shimadzu Nexera X^2 UHPLC System (Shimadzu Scientific Instruments, Canby, Oreg.) Column: SHISEIDO CAPCELL PAK INERT ADME S3 (2.00 mm×50 mm, Part No. 79001) Mobile Phase A: 8.6 mM Triethylamine, 100 mM HFIP (1,1,1,3,3,3-Hexafluoro-2-propanol) in Water Mobile Phase B: 8.6 mM Triethylamine, and 100 mM HFIP in [Acetonitrile:water (95:5, v/v) Needle wash (weak & strong): Acetone:MeCN:Water (80:20:20, v/v/v) Flow Rate: 0.50 mL/min HPLC Gradient:
• Ionization Mode: Electrospray (ESI) • Detection Mode: Negative MRM (Q1/Q3 transitions: m/z 579.0/157.0 for Compound (Ia) or Compound 3; m/z 584.0/157.0 for Internal Standard); (Q1/Q3 transitions m/z 562.2/157.0 for Compound 2; m/z 584.0/157.0 for Internal Standard)

Setting [1] is: male, cynomolgus monkey, plasma, po, 50 mg, enteric capsule, with 195 mg sodium citrate, 3 mg SDS, fasted.
Setting [2] is: male, cynomolgus monkey, plasma, po, 50 mg, enteric capsule, with 275 mg sodium phytate (Sigma-Aldrich, ≥5 mol sodium/mol), fasted.
The mark [3] stands for this setting: male, cynomolgus monkey, plasma, po, 50 mg, oral, enteric capsule, dose 50 mg, with 195 mg sodium citrate, 3 mg SDS, fasted, read-out: Cmax.
Setting [4] is: male, cynomolgus monkey, plasma, po, 50 mg, oral, enteric capsule, dose 50 mg, with 275 mg sodium phytate (Sigma-Aldrich, ≥5 mol sodium/mol), fasted, read-out: Cmax.
The mark [5] stands for this setting: male, cynomolgus monkey, plasma, po, 50 mg, Table 3: dose 50 mg, dosed with 195 mg trisodium citrate and 3 mg SDS, enteric capsules.
The mark [6] stands for this setting: male, cynomolgus monkey, plasma, po, 50 mg, Table 3: dose 50 mg, dosed with 195 mg trisodium citrate and 3 mg SDS, enteric capsules, read-out: Cmax.
Where [7] appears, read: male, cynomolgus monkey, plasma, po, 50 mg, Table 4: dose 50 mg, dosed with 275 mg sodium phytate, enteric capsules.
The mark [8] stands for this setting: male, cynomolgus monkey, plasma, po, 50 mg, Table 4: dose 50 mg, dosed with 275 mg sodium phytate, enteric capsules, read-out: Cmax.
Setting [9] is: oral, enteric capsule, dose 50 mg, with 275 mg sodium phytate (Sigma-Aldrich, ≥5 mol sodium/mol), fasted.

Consider `C[C@H](Nc1nc(Cl)nc2c1cnn2[C@@H]1O[C@H](COP(=O)(O)CP(=O)(O)O)[C@@H](O)[C@H]1O)c1ccccc1` [2 (Na)], for which the AUC(0-inf) (male, cynomolgus monkey, plasma, po, 10 mg, enteric capsule, neat, fasted) amounted to 918 ng·h/mL; the AUC(0-inf) (male, cynomolgus monkey, plasma, po, 10 mg, enteric capsule, with 195 mg sodium citrate, 3 mg SDS, fasted) was 4880 ng·h/mL; the AUC(0-inf) (male, cynomolgus monkey, plasma, po, 10 mg, enteric capsule, with 195 mg sodium citrate, fasted) was 8840 ng·h/mL; the AUC(0-inf) (male, cynomolgus monkey, plasma, po, 10 mg, enteric capsule, with 275 mg sodium phytate (Sigma-Aldrich), fasted) worked out at 6010 ng·h/mL; the AUC(0-inf) under setting [1] worked out at 67100 ng·h/mL; the AUC(0-inf) under setting [2] was determined as 105000 ng·h/mL. In addition, the Cmax reads like this: (male, cynomolgus monkey, plasma, po, 10 mg, oral, enteric capsule, dose 10 mg, neat, fasted, read-out: Cmax) 161 ng/mL; (male, cynomolgus monkey, plasma, po, 10 mg, oral, enteric capsule, dose 10 mg, with 195 mg sodium citrate, 3 mg SDS, fasted, read-out: Cmax) 997 ng/mL; (male, cynomolgus monkey, plasma, po, 10 mg, oral, enteric capsule, dose 10 mg, with 195 mg sodium citrate, fasted, read-out: Cmax) 791 ng/mL; (male, cynomolgus monkey, plasma, po, 10 mg, oral, enteric capsule, dose 10 mg, with 275 mg sodium phytate (Sigma-Aldrich), fasted, read-out: Cmax) 824 ng/mL; under setting [3], 2530 ng/mL; under setting [4], 2320 ng/mL. Also, the “Exposure Enhancement” value (oral, enteric capsule, dose 10 mg, with 195 mg sodium citrate, 3 mg SDS, relative to 10 mg dose of 2(Na) without absorption enhancer) is recorded as 5.3-fold^e; the “Exposure Enhancement” value (oral, enteric capsule, dose 10 mg, with 195 mg sodium citrate, relative to 10 mg dose of 2(Na) without absorption enhancer) is recorded as 9.6-fold^e; the “Exposure Enhancement” value (oral, enteric capsule, dose 10 mg, with 275 mg sodium phytate (Sigma-Aldrich), relative to 10 mg dose of 2(Na) without absorption enhancer) is listed as 6.6-fold^e.
On to `C[C@H](Nc1nc(Cl)nc2c1cnn2[C@@H]1O[C@H](COP(=O)(O)CP(=O)(O)O)[C@@H](O)[C@H]1O)c1ccccc1` [2 (Neutral)], for which the AUC(0-inf) is 129000 ng·h/mL (male, cynomolgus monkey, plasma, po, 50 mg, enteric capsule, with 195 mg sodium citrate, 6 mg sodium dodecyl sulfate (SDS), fasted) and 151000 ng·h/mL (male, cynomolgus monkey, plasma, po, 50 mg, gelatin capsule, with 195 mg sodium citrate, 6 mg SDS, fasted). Also, the Cmax is 3140 ng/mL (male, cynomolgus monkey, plasma, po, 50 mg, oral, enteric capsule, dose 50 mg, with 195 mg sodium citrate, 6 mg sodium dodecyl sulfate (SDS), fasted, read-out: Cmax) and 3180 ng/mL (male, cynomolgus monkey, plasma, po, 50 mg, oral, gelatin capsule, dose 50 mg, with 195 mg sodium citrate, 6 mg SDS, fasted, read-out: Cmax).
`C[C@H](Nc1cc(Cl)nc2c1cnn2[C@@H]1O[C@H](COP(=O)(O)CP(=O)(O)O)[C@@H](O)[C@H]1O)c1ccc(F)cc1` [3 ( 3Na)] displayed an AUC(0-inf) under setting [1] of 38700 ng·h/mL and an AUC(0-inf) under setting [2] of 149000 ng·h/mL. Also, the Cmax reads like this: under setting [3], 1320 ng/mL; under setting [4], 3550 ng/mL.
Consider `C[C@H](Nc1cc(Cl)nc2c1cnn2[C@@H]1O[C@H](COP(=O)(O)CP(=O)(O)O)[C@@H](O)[C@H]1O)c1ccc(F)cc1` [Compound 3], for which the “Oral bioavailability using calcium chelating excipients” value was “Improved”. The same compound returned an AUC(0-inf) under setting [5] of 38700 ng·h/mL. Moreover, the Cmax under setting [6] was 1320 ng/mL. Besides, the AUC(0-inf) under setting [7] is 149000 ng·h/mL. Under setting [8], the Cmax came out at 3550 ng/mL.
Regarding `C[C@H](Nc1cc(Cl)nc2c1cnn2[C@@H]1O[C@H](COP(=O)(O)CP(=O)(O)O)[C@@H](O)[C@H]1O)c1ccccc1F` [Compound (Ia), (((((2R,3S,4R,5R)-5-(6-chloro-4-(((S)-1-(2-fluorophenyl)ethyl)amino)-1H-pyrazolo[3,4-b]pyridin-1-yl)-3,4-dihydroxytetrahydrofuran-2-yl)methoxy)(hydroxy)phosphoryl)methyl)phosphonic acid], the “Oral bioavailability using calcium chelating excipients” value was “Improved”. The compound further had an AUC(0-inf) under setting [5] of 22200 ng·h/mL. Further, under setting [6], the Cmax turned out to be 922 ng/mL. Further, the total exposure AUC(0-inf) under setting [7] turned out to be 122000 ng·h/mL. Also, under setting [8], the Cmax stood at 3680 ng/mL.
Consider `C[C@H](Nc1cc(Cl)nc2c1cnn2[C@@H]1O[C@H](COP(=O)(O)CP(=O)(O)O)[C@@H](O)[C@H]1O)c1ccccc1F` [Ia (Neutral), (((((2R,3S,4R,5R)-5-(6-chloro-4-(((S)-1-(2-fluorophenyl)ethyl)amino)-1H-pyrazolo[3,4-b]pyridin-1-yl)-3,4-dihydroxytetrahydrofuran-2-yl)methoxy)(hydroxy)phosphoryl)methyl)phosphonic acid], for which the “Exposure Enhancement” value (oral, enteric capsule, dose 50 mg, with 275 mg sodium phytate (Sigma-Aldrich), relative to 50 mg Ia ( 3Na) without absorption enhancer) was 7.6-fold^b. Under setting [9], the “AUC0-∞” value was 102,000 h*ng/mL and the Cmax is 2,790 ng/mL.
